Assay results: patent US7557132B2, “Compounds useful as pesticides” (Dow AgroSciences LLC, priority 2002, dated 2009)

melting point: 93 to 95 °C
SMILES: CC(/C(=C/[N+](=O)[O-])Nc1ccccc1)c1ccc(Cl)nc1 (stereo not shown) [Compound 45, N-{(Z)-1-[1-(6-chloro-3-pyridinyl)ethyl]-2-nitroethenyl}aniline]
